The results in this text go back to patent publication US20150329558A1, “FUSED HETEROCYCLIC COMPOUNDS AS ION CHANNEL MODULATORS” (Gilead Sciences, Inc., priority 2011, published 2015).

A short description of data set [1]: Microsomal stability assay, human. It is filed as in vitro ADME. The note with it: metabolic stability, human liver microsomes 0.5 mg/mL, substrate 3 uM. The procedure:
(§1) The micorsomal stability assay is generally performed as follows. Format: 15 compounds (and 1 control verapamil) in 3 different species in duplicate sets Substrate: 3 uM Protein concentration: 0.5 mg/mL (for dog, rat, and human liver microsomes) Cofactor: 1×NADPH-Regenerating system Time-points: 2, 12, 25, 45, and 65 minutes [table] Sample preparation: 25 uL at each timepoint is added to plate with 225 uL quenching solution (50% MeOH, 25% ACN, 25% H2O, and 50 nM […]). After plates are vortexed, centrifuge for 30 minutes. Microsomal solutions: take 400 uL of 20 mg/mL microsomes and add to 13,680 uL 100 mM KPO4 buffer. Using an 8-channel, add 650 uL of this solution to the designated two columns on a short plate. The order should be dog microsomes in columns 1 and 2, rat microsomes in columns 3 and 4, and human microsomes in columns 5 and 6. Keep on ice before use. Place this plate in incubator 1 on the TECAN countertop.
(Liver microsomes are vesicles of endoplasmic reticulum, rich in cytochrome P450 enzymes.)

The target in data set [2] is wild-type human cardiac sodium channel, hNav1.5 (late INa) (Homo sapiens, UniProt Q14524). Kind of data set: Late INa screening assay (QPatch whole cell patch clamp). It is filed as cell-based. As to conditions: percent block of late INa, compound at 1 μM, 10 μM Tefluthrin, HEK293 hNav1.5; read-out: Late INa 1 μM. In outline:
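HEK293 cells stably expressing hNav1.5 alpha subunit without beta subunits, QPatch automated whole-cell clamp at 23-25° C, CsF-based internal solution pH 7.4. Late INa induced by 10 μM tefluthrin; 250 ms steps to −20 mV from −120 mV at 0.1 Hz, compounds at 1 μM. Percent block of mean current 225–250 ms into the step.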

Data set [3] in a line: Microsomal stability assay, dog. It is filed as in vitro ADME. As to conditions: metabolic stability, dog liver microsomes 0.5 mg/mL, substrate 3 uM. The procedure: as §1
The nature of data set [4]: Microsomal stability assay, rat. The format is in vitro ADME. The note with it: metabolic stability, rat liver microsomes 0.5 mg/mL, substrate 3 uM. Here is the method:
as §1

SMILES strings stand for the structures.

wild-type human cardiac sodium channel, hNav1.5 (late INa), sequence (Q14524 whole entry): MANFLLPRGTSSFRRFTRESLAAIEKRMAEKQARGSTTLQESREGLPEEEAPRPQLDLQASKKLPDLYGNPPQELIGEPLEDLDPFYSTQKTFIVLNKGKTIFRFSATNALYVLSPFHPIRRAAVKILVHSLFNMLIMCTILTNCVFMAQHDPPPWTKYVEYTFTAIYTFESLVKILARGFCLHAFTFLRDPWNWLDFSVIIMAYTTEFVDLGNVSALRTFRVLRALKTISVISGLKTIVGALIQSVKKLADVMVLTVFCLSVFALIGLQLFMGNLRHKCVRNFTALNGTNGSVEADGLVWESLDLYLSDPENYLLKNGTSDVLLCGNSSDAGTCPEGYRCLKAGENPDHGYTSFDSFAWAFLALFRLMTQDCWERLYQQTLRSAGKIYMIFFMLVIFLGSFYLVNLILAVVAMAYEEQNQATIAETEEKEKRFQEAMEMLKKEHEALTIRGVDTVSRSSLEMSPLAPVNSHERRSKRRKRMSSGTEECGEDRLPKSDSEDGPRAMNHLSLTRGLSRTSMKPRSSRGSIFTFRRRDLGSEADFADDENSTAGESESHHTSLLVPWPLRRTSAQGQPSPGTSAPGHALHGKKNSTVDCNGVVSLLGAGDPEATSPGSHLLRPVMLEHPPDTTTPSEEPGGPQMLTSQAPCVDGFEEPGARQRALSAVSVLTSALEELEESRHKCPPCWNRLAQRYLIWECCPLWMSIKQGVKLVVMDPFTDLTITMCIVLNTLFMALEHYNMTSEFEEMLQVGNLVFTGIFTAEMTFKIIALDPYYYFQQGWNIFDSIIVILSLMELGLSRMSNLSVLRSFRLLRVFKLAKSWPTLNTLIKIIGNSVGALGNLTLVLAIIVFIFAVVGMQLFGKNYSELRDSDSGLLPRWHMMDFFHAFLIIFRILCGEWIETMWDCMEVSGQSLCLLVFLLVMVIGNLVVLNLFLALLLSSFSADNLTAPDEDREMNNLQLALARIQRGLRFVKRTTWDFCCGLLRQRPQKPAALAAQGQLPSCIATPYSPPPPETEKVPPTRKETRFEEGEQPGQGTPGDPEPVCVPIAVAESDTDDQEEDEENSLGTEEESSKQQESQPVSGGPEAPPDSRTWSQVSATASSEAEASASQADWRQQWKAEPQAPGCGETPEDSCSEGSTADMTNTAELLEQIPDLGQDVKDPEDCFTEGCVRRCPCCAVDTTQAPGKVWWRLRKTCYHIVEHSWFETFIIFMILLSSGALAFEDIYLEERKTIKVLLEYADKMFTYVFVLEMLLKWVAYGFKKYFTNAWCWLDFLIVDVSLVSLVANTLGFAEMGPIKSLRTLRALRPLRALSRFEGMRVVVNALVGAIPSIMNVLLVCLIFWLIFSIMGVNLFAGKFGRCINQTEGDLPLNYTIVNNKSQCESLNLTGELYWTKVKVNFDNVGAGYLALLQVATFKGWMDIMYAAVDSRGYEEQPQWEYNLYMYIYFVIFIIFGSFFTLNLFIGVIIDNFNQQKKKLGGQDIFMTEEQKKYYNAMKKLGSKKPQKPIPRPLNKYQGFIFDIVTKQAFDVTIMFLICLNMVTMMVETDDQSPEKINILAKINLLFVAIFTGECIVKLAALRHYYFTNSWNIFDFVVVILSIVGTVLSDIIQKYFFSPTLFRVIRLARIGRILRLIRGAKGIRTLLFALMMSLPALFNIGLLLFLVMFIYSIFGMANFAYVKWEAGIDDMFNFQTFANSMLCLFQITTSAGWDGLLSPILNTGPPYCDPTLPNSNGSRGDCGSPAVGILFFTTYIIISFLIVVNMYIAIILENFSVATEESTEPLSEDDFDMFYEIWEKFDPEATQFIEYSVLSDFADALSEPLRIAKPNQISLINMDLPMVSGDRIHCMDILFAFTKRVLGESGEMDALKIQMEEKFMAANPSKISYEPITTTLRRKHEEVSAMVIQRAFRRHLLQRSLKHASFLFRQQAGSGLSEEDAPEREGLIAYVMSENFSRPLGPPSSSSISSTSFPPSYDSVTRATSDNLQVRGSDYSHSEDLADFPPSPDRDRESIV

In data set [1], `O=c1c2cc(-c3cnc(N4CCCCC4)nc3)ccc2nnn1CCOc1ncccn1` [Compound V-12, 6-(2-(piperidin-1-yl)pyrimidin-5-yl)-3-(2-(pyrimidin-2-yloxy)ethyl)benzo[d][1,2,3]triazin-4(3H)-one] gave an MS Human THalf of 9 min. For the same compound, the inhibition at 1 µM in data set [2] turned out to be 26%. Besides, in data set [3], the MS Dog THalf is 5 min. The compound also gave an MS Rat THalf in data set [4] of 11 min.
The compound `Cc1nc(Cn2nnc3ccc(-c4ccc(OC(F)(F)F)cc4)cc3c2=O)no1` [II-6, 3-((5-methyl-1,2,4-oxadiazol-3-yl)methyl)-6-(4-(trifluoromethoxy)phenyl)benzo[d][1,2,3]triazin-4(3H)-one] gave an MS Human THalf in data set [1] of 164 min. In addition, in data set [2], the inhibition at 1 µM is 43%. The MS Dog THalf in data set [3] was found to be 123 min. This compound also displayed an MS Rat THalf in data set [4] of 144 min.
`Cc1noc(Cn2nnc3ccc(-c4ccc(Oc5ccccc5)cc4)cc3c2=O)n1` [II-7, 3-((3-methyl-1,2,4-oxadiazol-5-yl)methyl)-6-(4-phenoxyphenyl)benzo[d][1,2,3]triazin-4(3H)-one] displayed an MS Human THalf in data set [1] of 10 min. Further, in data set [2], the inhibition at 1 µM was determined as 75%. In addition, the MS Dog THalf in data set [3] is 4 min. Besides, the MS Rat THalf in data set [4] came to 10 min.
`O=c1c2cc(-c3ccc(OC(F)(F)F)cc3)ccc2nnn1CCn1cccn1` [II-13, 3-(2-(1H-pyrazol-1-yl)ethyl)-6-(4-(trifluoromethoxy)phenyl)benzo[d][1,2,3]triazin-4(3H)-one] returned an MS Human THalf in data set [1] of 149 min. In addition, in data set [2], the inhibition at 1 µM is 67%. For the same compound, the MS Dog THalf in data set [3] is 36 min. In addition, the MS Rat THalf in data set [4] stood at 25 min.
In data set [1], `O=c1c2cc(-c3ccc(OC(F)(F)F)cc3)ccc2nnn1CCc1ccccn1` [II-15, 3-(2-(pyridin-2-yl)ethyl)-6-(4-(trifluoromethoxy)phenyl)benzo[d][1,2,3]triazin-4(3H)-one] showed an MS Human THalf of 33 min. Besides, the inhibition at 1 µM in data set [2] came to 71%. Besides, the MS Dog THalf in data set [3] was 23 min. The compound further showed an MS Rat THalf in data set [4] of 19 min.
In the same order, the values of `Cc1noc(Cn2nnc3ccc(-c4ccc(Oc5ccc(Cl)cc5)cc4)cc3c2=O)n1` [II-16, 6-(4-(4-chlorophenoxyl)phenyl)-3-((3-methyl-1,2,4-oxadiazol-5-yl)methyl)benzo[d][1,2,3]triazin-4(3H)-one] are 74 min, 76%, 31 min and 102 min.
`O=C(Cn1nnc2ccc(-c3ccc(OC(F)(F)F)cc3)cc2c1=O)N1CCN(c2ncccn2)CC1` [II-41, 3-(2-oxo-2-(4-(pyrimidin-2-yl)piperazin-1-yl)ethyl)-6-(4-(trifluoromethoxy)phenyl)benzo[d][1,2,3]triazin-4(3H)-one] yielded an MS Human THalf in data set [1] of 28 min. Moreover, the inhibition at 1 µM in data set [2] was 25%. Further, the MS Dog THalf in data set [3] came to 80 min. For the same compound, the MS Rat THalf in data set [4] amounted to 16 min.
`N#CC1(c2ccc(-c3ccc4nnn(CCOc5ncccn5)c(=O)c4c3)cc2)CC1` [II-50, 1-(4-(4-oxo-3-(2-(pyrimidin-2-yloxy)ethyl)-3,4-dihydrobenzo[d][1,2,3]triazin-6-yl)phenyl)cyclopropanecarbonitrile] displayed an MS Human THalf in data set [1] of 165 min. The inhibition at 1 µM in data set [2] was determined as 30%. The MS Dog THalf in data set [3] came to 159 min. The compound also returned an MS Rat THalf in data set [4] of 49 min.
In the same order, the values of `N#Cc1cnc(OCCn2nnc3ccc(-c4ccc(OC(F)(F)F)cc4)cc3c2=O)nc1` [II-51, 2-(2-(4-oxo-6-(4-(trifluoromethoxy)phenyl)benzo[d][1,2,3]triazin-3(4H)-yl)ethoxy)pyrimidine-5-carbonitrile] are more than 395 min, 35%, 93 min and 197 min.
As for `O=c1c2cc(-c3ccc(OC(F)(F)F)cc3)ccc2nnn1CCn1ccc(C(F)(F)F)n1` [II-52, 6-(4-(trifluoromethoxy)phenyl)-3-(2-(3-(trifluoromethyl)-1H-pyrazol-1-yl)ethyl)benzo[d][1,2,3]triazin-4(3H)-one], in data set [1], the MS Human THalf came out at 319 min. In addition, the inhibition at 1 µM in data set [2] was 32%. The compound further displayed an MS Dog THalf in data set [3] of 76 min. In data set [4], this compound showed an MS Rat THalf of 118 min.
In the same order, the values of `CC(c1nc(-c2ncccn2)no1)n1nnc2ccc(-c3ccc(OC(F)(F)F)cc3)cc2c1=O` (centres unmarked) [II-53, 3-(1-(3-(pyrimidin-2-yl)-1,2,4-oxadiazol-5-yl)ethyl)-6-(4-(trifluoromethoxy)phenyl)benzo[d][1,2,3]triazin-4(3H)-one] are more than 395 min, 29%, 646 min and more than 395 min.
In data set [1], `CCc1nccn1CC1(Cn2nnc3ccc(-c4ccc(OC(F)(F)F)cc4)cc3c2=O)CC1` [II-57, 3-((1-((2-ethyl-1H-imidazol-1-yl)methyl)cyclopropyl)methyl)-6-(4-(trifluoromethoxy)phenyl)benzo[d][1,2,3]triazin-4(3H)-one] displayed an MS Human THalf of 2 min. Besides, in data set [2], the inhibition at 1 µM is 38%. In addition, in data set [3], the MS Dog THalf stood at 4 min. The MS Rat THalf in data set [4] stood at 2 min.
`O=c1c2cc(-c3ccc(OC(F)(F)F)cc3)ccc2nnn1C1CCN(CC(F)(F)F)CC1` [II-71, 3-(1-(2,2,2-trifluoroethyl)piperidin-4-yl)-6-(4-(trifluoromethoxy)phenyl)benzo[d][1,2,3]triazin-4(3H)-one] displayed an MS Human THalf in data set [1] of 75 min. In addition, the inhibition at 1 µM in data set [2] was found to be 25%. In data set [3], this compound displayed an MS Dog THalf of 78 min. Besides, in data set [4], the MS Rat THalf is 94 min.
`CCOC(=O)N1CCC(=O)C(n2nnc3ccc(-c4ccc(OC(F)(F)F)cc4)cc3c2=O)C1` (centres unmarked) [II-72, ethyl 4-oxo-3-(4-oxo-6-(4-(trifluoromethoxy)phenyl)benzo[d][1,2,3]triazin-3(4H)-yl)piperidine-1-carboxylate]: the MS Human THalf in data set [1] was found to be 11 min. In data set [2], the inhibition at 1 µM was 31%. Also, the MS Dog THalf in data set [3] came to 6 min. The compound also showed an MS Rat THalf in data set [4] of 8 min.
The compound `CC(C)(COc1ncccn1)Cn1nnc2ccc(-c3ccc(OC(F)(F)F)cc3)cc2c1=O` [II-84, 3-(2,2-dimethyl-3-(pyrimidin-2-yloxy)propyl)-6-(4-(trifluoromethoxy)phenyl)benzo[d][1,2,3]triazin-4(3H)-one] had an MS Human THalf in data set [1] of 107 min. Moreover, the inhibition at 1 µM in data set [2] was determined as 34%. For the same compound, in data set [3], the MS Dog THalf is 98 min. This compound also returned an MS Rat THalf in data set [4] of 51 min.
In data set [1], `O=c1c2cc(-c3ccc(OC(F)(F)F)cc3)ccc2nnn1Cc1coc(C2CCC2)n1` [II-98, 3((2-cyclobutyloxazol-4-yl)methyl)-6-(4-(trifluoromethoxy)phenyl)benzo[d][1,2,3]triazin-4(3H)-one] gave an MS Human THalf of 31 min. In addition, in data set [2], the inhibition at 1 µM came to 41%. The compound further gave an MS Dog THalf in data set [3] of 34 min. The MS Rat THalf in data set [4] stood at 16 min.
With `Cc1nc(Cn2ncc3ccc(-c4ccc(OC(F)(F)F)cc4)cc3c2=O)no1` [III-3, 2-((5-methyl-1,2,4-oxadiazol-3-yl)methyl)-7-(4-(trifluoromethoxy)phenyl)phthalazin-1(2H)-one], the MS Human THalf in data set [1] is more than 395 min. Besides, the inhibition at 1 µM in data set [2] amounted to 42%. In data set [3], this compound displayed an MS Dog THalf of 122 min. The compound also had an MS Rat THalf in data set [4] of 104 min.
For `O=c1c2cc(-c3ccc(OC(F)(F)F)cc3)ccc2cnn1CCn1cccc1` [III-10, 2-(2-(1H-pyrrol-1-yl)ethyl)-7-(4-(trifluoromethoxy)phenyl)phthalazin-1(2H)-one], in that order: 41 min, 33%, 18 min and 18 min.
As to `O=c1c2cc(-c3ccc(OC(F)(F)F)cc3)ccc2cnn1Cc1cccnc1Br` [III-14, 2-((2-bromopyridin-3-yl)methyl)-7-(4-(trifluoromethoxy)phenyl)phthalazin-1 (2H)-one], the MS Human THalf in data set [1] stood at 251 min. In data set [2], the inhibition at 1 µM is 39%. Moreover, the MS Dog THalf in data set [3] was determined as 77 min. Moreover, the MS Rat THalf in data set [4] was determined as 55 min.
Consider `Cc1ccn(CCn2ncc3ccc(-c4ccc(OC(F)(F)F)cc4)cc3c2=O)n1` [III-17, 2-(2-(3-methyl-1H-pyrazol-1-yl)ethyl)-7-(4-(trifluoromethoxy)phenyl)phthalazin-1 (2H)-one], for which the MS Human THalf in data set [1] was 34 min. Also, the inhibition at 1 µM in data set [2] was found to be 49%. Also, in data set [3], the MS Dog THalf amounted to 28 min. This compound also registered an MS Rat THalf in data set [4] of 22 min.
As to `COc1ncc(-c2cnn(CCn3ncc4ccc(-c5ccc(OC(F)(F)F)cc5)cc4c3=O)c2)cn1` [III-34, 2-(2-(4-(2-methoxypyrimidin-5-yl)-1H-pyrazol-1-yl)ethyl)-7-(4-(trifluoromethoxy)phenyl)phthalazin-1 (2H)-one], in data set [1], the MS Human THalf worked out at 50 min. The compound further yielded an MS Dog THalf in data set [3] of 46 min. This compound also yielded an MS Rat THalf in data set [4] of 41 min.
